Entries after “also recorded” stand apart in the source; their conditions may differ.
Assays:
RAW 264.7 macrophages = test: protection of RAW 264.7 macrophages from LPS-induced cytotoxicity; details: LPS 100 μg/mL, MTS assay
NF-κB = test: RAW-Blue NF-κB reporter gene assay; assay type: cell-based, murine; details: RAW-Blue macrophages, 0.2, 1 and 5 μM, LPS/IFNγ 10 ng/mL of each
iNOS = assay type: cell-based, murine; details: 5 μM, RAW 264.7 macrophages activated by LPS and IFNγ (10 ng/mL of each)
NO production = test: nitric oxide; assay type: cell-based, murine; details: RAW 264.7 cells, 0.2, 1 and 5 μM, LPS/IFNγ 10 ng/mL of each
[1] = test system: lipid peroxidation in RAW 264.7 cells; test: lipid peroxidation by BODIPY 581/591 C11 staining and FACS in RAW 264.7 cells; assay type: cell-based, murine; details: 5 μM, LPS/IFNγ 10 ng/mL of each, 24 h
15-LOX-1 = molecular target: T1, 15-LOX-1 (Homo sapiens, UniProt P16050); assay type: biochemical
T1 sequence (P16050 1-662): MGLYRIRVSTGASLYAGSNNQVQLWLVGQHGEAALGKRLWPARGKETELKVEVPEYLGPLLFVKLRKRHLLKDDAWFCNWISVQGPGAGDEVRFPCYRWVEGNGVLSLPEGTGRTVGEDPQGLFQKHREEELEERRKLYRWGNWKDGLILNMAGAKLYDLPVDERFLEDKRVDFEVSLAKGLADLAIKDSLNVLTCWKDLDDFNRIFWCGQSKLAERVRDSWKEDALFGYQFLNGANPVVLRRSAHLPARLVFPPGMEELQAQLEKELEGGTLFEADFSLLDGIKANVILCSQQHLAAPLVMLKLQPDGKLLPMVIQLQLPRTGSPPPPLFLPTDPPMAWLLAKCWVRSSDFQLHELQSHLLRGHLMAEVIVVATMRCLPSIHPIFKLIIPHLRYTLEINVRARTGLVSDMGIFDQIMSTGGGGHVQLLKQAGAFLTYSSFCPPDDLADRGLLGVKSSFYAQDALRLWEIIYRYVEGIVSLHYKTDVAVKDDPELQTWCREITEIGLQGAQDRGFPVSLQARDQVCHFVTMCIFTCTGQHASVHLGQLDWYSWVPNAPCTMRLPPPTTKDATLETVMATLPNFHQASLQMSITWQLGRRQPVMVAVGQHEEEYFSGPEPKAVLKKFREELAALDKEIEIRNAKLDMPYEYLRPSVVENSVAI

CCOC(=O)c1[nH]c2cc(Cl)ccc2c1C(=O)C[C@@H](C)CCCC(C)C [Eleftheriadis-14d]
effect on viability of LPS-treated RAW 264.7 macrophages, in words (RAW 264.7 macrophages): comparably improved the viability

CCOC(=O)c1[nH]c2cc(Cl)ccc2c1/C=C/C(=O)NCc1ccccc1OC [Compound 9c, Ethyl (E)-6-Chloro-3-(3-((2-methoxybenzyl)amino)-3-oxoprop-1-en-1-yl)-1H-indole-2-carboxylate]
inhibition of NF-κB transcriptional activation (NF-κB): significant but not complete inhibition | downregulation of iNOS gene expression (iNOS): approximately 50% | inhibition of NO production (total nitrate/nitrite) (NO production): dose-dependent inhibition | effect on the boost of lipid peroxides ([1]; listed as 9c (i472)): significantly attenuated; also recorded: clear reduction back to baseline levels | effect on viability of LPS-treated RAW 264.7 macrophages, in words (RAW 264.7 macrophages): stronger, dose-dependent effects

c1ccc2c(c1)SCc1c-2[nH]c2ccccc12 [PD-146176, reference compound]
effect on the boost of lipid peroxides [1]: significantly attenuated

CCCNC(=O)c1[nH]c2cc(Cl)ccc2c1CN(C)C [Compound 13, 6-Chloro-3-((dimethylamino)methyl)-N-propyl-1H-indole-2-carboxamide]
potency against 15-LOX-1, in words (15-LOX-1): complete loss in potency

CC(c1cc2ccccc2s1)N(O)C(N)=O (stereo not drawn) [Zileuton]
effect on viability of LPS-treated RAW 264.7 macrophages, in words (RAW 264.7 macrophages): comparably improved the viability
